Each structure is given as a SMILES string. pIC50: −log10 of the molar value.

Test [1] deals with T1, [Pyruvate dehydrogenase (acetyl-transferring)] kinase isozyme 2, mitochondrial (Homo sapiens, UniProt Q15119). Kind of test: Inhibition of PDHK2 (unknown origin) by radiometric biochemical kinase assay.
Test [2] addresses T2, [Pyruvate dehydrogenase (acetyl-transferring)] kinase isozyme 4, mitochondrial (Homo sapiens, UniProt Q16654). Briefly: Inhibition of PDHK4 (unknown origin) by radiometric biochemical kinase assay.
Test [3] concerns the target [Pyruvate dehydrogenase (acetyl-transferring)] kinase isozyme 1, mitochondrial (Homo sapiens, UniProt Q15118). Briefly: Inhibition of PDHK1 (unknown origin) by radiometric biochemical kinase assay.
The target of test [4] is [Pyruvate dehydrogenase (acetyl-transferring)] kinase isozyme 3, mitochondrial (Homo sapiens, UniProt Q15120). Briefly: Inhibition of PDHK3 (unknown origin) by radiometric biochemical kinase assay.
The target in a further test is Heat shock protein HSP90 (Homo sapiens, UniProt P07900+P08238). Kind of test: Inhibition of HSP90 (unknown origin). The class given is protein assay.
Test [5] concerns NCI-H1299. Briefly: Antiproliferative activity against p53 deficient human H1299 cells incubated for 72 hrs by CellTiter-Glo assay. It is filed as functional. The following applies: NCI-H1299, 72 h. (In general: ATP-based viability assays read luminescence as a measure of living cells.)
The subject of test [6] is DU-145. Kind of test: Antiproliferative activity against p53 deficient human DU145 cells incubated for 72 hrs by CellTiter-Glo assay. It is filed as functional. The following applies: DU-145, 72 h.
The test system of test [7] is NCI-H1299. Briefly: Antiproliferative activity against PDHK1/2 double knockdown human H1299 cells transfected with PDHK1/2 siRNA at 10 uM incubated for 48 hrs by CellTiter-Glo assay relative to control. It is filed as functional.
Test [8] relates to NCI-H1299. Briefly: Antiproliferative activity against human H1299 cells transfected with control siRNA at 10 uM incubated for 48 hrs in by CellTiter-Glo assay relative to control. The class given is functional.
In test [9] the target is T1, [Pyruvate dehydrogenase (acetyl-transferring)] kinase isozyme 2, mitochondrial. Kind of test: Inhibition of PDHK2 (unknown origin) assessed as reduction in NAD measured for 30 mins.
Test [10] concerns the target T2, [Pyruvate dehydrogenase (acetyl-transferring)] kinase isozyme 4, mitochondrial. Briefly: Inhibition of PDHK4 (unknown origin) assessed as reduction in NAD measured for 30 mins.
A further test addresses T3, Cytochrome P450 1A2 (Homo sapiens, UniProt P05177).
T3 sequence (P05177 whole entry): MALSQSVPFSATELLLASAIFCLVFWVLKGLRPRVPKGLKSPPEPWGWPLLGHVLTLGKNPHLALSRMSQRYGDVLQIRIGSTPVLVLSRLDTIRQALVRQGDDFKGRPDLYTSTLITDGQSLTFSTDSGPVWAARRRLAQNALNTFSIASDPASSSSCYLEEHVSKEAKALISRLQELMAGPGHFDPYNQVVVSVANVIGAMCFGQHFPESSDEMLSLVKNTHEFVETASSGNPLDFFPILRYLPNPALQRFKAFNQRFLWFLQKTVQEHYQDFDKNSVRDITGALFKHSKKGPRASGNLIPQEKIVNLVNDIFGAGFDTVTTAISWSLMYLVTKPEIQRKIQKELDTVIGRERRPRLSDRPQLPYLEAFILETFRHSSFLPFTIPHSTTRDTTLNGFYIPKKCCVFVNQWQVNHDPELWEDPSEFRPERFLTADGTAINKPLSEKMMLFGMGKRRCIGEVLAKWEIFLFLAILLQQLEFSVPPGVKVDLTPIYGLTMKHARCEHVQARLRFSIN
Kind of test: Inhibition of CYP1A2 (unknown origin). It is filed as ADME.

A further test has as its target Cytochrome P450 2C9 (Homo sapiens, UniProt P11712). Kind of test: Inhibition of CYP2C9 (unknown origin). The class given is ADME.
For a further test, the target named is Cytochrome P450 2C19 (Homo sapiens, UniProt P33261). Briefly: Inhibition of CYP2C19 (unknown origin). The class given is ADME.
The target in another test is Cytochrome P450 2D6 (Homo sapiens, UniProt P10635). Briefly: Inhibition of CYP2D6 (unknown origin). It is filed as ADME.
The target of a further test is Cytochrome P450 3A4 (Homo sapiens, UniProt P08684). Briefly: Inhibition of CYP3A4 (unknown origin). It is filed as ADME.
The test system of test [11] is NCI-H1299. Briefly: Induction of apoptosis in human H1299 cells assessed as increase in apoptotic cells at 30 uM incubated for 48 hrs by FITC Annexin-V and PI staining based flow cytometric analysis relative to control. The class given is functional. (In general: In flow cytometry, cells or beads pass a laser one at a time.)
The subject of test [12] is DU-145. Kind of test: Induction of apoptosis in human DU145 cells assessed as increase in apoptotic cells at 30 uM incubated for 48 hrs by FITC Annexin-V and PI staining based flow cytometric analysis relative to control. It is filed as functional.
The subject of test [13] is NCI-H1299. Kind of test: Inhibition of anchorage-independent colony formation in human H1299 cells at 20 uM incubated for 14 days by p iodonitrotetrazolium violet staining based method relative to control. The following applies: NCI-H1299, 336 h. The class given is functional.
The test system of test [14] is NCI-H1299. Briefly: Antiproliferative activity against p53 deficient human H1299 cells at 20 uM incubated for 72 hrs by CellTiter-Glo assay relative to control. It is filed as functional.
Test [15] concerns NCI-H1299. Kind of test: Synergistic antiproliferative activity against human H1299 cells at 20 uM incubated for 72 hrs in presence of satra-platin by CellTiter-Glo assay relative to control. The class given is functional. The following applies: NCI-H1299, 72 h.
The test system of test [16] is NCI-H1299. Briefly: Synergistic induction of apoptosis in human H1299 cells assessed as increase in apoptotic cells at 10 uM incubated for 48 hrs in presence of satra-platin by FITC Annexin-V and PI staining based flow cytometric analysis relative to control. The class given is functional.

T2 sequence (Q16654 whole entry): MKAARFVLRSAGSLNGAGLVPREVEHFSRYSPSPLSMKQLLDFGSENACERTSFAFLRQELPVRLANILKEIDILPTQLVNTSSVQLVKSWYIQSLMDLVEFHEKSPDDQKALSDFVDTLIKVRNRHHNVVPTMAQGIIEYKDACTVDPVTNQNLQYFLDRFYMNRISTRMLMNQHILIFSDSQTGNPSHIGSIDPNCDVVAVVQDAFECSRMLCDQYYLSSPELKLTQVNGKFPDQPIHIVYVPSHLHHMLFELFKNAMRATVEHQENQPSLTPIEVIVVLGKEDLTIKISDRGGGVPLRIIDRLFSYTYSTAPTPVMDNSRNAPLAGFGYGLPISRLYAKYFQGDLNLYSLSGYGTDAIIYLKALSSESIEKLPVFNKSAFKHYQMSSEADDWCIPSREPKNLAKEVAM
[Pyruvate dehydrogenase (acetyl-transferring)] kinase isozyme 1, mitochondrial, sequence (Q15118 whole entry): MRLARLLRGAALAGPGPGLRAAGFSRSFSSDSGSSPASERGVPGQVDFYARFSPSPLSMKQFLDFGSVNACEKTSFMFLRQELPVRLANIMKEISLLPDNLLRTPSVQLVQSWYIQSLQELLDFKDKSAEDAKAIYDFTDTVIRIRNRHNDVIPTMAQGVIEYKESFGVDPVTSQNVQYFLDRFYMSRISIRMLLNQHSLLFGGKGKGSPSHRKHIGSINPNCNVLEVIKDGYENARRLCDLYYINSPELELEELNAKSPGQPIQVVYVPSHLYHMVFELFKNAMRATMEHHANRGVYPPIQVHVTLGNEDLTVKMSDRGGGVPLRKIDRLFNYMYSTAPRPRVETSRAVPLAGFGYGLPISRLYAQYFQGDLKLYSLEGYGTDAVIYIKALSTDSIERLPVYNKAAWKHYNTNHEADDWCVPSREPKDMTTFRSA
Cytochrome P450 2D6, sequence (P10635 whole entry): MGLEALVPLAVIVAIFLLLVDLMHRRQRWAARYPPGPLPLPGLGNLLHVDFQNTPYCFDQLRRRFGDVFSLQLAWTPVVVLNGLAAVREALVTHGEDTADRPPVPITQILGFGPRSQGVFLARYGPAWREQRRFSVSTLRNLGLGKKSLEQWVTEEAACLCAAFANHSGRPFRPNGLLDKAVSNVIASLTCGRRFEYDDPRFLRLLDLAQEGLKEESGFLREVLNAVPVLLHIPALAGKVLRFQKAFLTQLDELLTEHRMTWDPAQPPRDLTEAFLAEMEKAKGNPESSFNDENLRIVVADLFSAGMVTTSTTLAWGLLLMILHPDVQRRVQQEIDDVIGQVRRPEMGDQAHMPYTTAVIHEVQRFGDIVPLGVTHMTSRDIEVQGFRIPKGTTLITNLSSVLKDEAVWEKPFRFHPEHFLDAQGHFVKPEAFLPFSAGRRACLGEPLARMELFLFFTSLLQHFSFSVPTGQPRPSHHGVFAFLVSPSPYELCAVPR
Cytochrome P450 2C9, sequence (P11712 whole entry): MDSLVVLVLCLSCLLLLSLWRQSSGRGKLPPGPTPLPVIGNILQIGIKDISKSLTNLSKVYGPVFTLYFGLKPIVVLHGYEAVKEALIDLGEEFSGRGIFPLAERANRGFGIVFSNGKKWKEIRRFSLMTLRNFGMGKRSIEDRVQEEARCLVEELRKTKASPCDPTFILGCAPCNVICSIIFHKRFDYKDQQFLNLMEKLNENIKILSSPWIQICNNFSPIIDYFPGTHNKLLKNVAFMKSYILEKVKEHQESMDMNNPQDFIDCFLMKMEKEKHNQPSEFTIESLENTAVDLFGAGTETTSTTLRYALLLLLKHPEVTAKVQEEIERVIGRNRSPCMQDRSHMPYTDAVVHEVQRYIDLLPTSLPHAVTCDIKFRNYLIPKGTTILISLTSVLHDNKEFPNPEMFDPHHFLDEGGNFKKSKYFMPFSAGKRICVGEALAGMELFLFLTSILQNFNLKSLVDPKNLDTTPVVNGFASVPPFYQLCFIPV
Cytochrome P450 2C19, sequence (P33261 whole entry): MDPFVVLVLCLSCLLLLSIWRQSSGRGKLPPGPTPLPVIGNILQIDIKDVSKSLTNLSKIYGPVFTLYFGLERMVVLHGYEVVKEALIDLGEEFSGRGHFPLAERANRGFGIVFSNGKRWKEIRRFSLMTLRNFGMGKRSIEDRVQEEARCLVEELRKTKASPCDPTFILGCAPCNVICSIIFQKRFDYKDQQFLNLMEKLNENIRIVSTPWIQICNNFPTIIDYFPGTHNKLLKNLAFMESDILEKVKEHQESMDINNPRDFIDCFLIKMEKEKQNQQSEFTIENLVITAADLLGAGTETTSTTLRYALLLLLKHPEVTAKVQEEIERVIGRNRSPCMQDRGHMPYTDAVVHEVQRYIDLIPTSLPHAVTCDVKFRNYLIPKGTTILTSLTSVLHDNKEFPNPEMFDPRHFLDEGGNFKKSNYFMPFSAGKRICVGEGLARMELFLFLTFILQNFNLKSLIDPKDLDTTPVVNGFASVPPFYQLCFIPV
[Pyruvate dehydrogenase (acetyl-transferring)] kinase isozyme 3, mitochondrial, sequence (Q15120 whole entry): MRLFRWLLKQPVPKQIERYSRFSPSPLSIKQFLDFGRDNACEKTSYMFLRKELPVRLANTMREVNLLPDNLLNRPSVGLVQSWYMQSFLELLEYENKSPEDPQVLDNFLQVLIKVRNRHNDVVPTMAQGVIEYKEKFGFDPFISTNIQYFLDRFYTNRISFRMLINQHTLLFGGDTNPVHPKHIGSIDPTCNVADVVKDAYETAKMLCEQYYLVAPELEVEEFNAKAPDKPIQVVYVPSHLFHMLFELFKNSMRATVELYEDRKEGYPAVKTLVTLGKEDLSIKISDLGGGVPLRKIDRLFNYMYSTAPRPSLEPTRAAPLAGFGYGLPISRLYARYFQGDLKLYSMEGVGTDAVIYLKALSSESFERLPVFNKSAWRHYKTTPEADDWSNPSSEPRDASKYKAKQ
Cytochrome P450 3A4, sequence (P08684 whole entry): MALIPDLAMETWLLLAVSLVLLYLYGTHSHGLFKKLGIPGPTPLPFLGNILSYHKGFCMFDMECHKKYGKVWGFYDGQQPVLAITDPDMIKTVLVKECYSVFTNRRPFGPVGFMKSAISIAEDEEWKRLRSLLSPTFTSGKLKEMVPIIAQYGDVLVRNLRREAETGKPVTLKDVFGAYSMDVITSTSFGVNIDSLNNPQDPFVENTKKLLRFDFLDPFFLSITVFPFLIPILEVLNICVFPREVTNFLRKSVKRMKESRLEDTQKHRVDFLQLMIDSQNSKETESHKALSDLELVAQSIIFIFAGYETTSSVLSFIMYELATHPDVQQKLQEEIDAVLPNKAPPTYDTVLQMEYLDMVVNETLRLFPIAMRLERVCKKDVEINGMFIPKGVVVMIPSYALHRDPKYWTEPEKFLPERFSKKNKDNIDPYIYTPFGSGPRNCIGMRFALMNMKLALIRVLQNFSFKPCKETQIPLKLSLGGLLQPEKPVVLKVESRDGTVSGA

As usually defined, the pIC50 is −log10 of the IC50, conventionally taken in molar units. By IC50 is commonly meant the concentration that gives 50% inhibition. A higher IC50 goes with weaker potency. The term GI50 denotes the concentration that inhibits growth by half. By inhibition is commonly meant the change of the read-out against control, counted positive when it falls. A high value points to a strong effect. Consider `CN(C)C(=O)c1ccc(N(Cc2ccc(Br)o2)C(=O)c2ccc(O)cc2O)cc1`, for which the negative logarithm of the IC50 (pIC50) in [1] was 8.00; in test [2], 7.89; in test [3], 7.44; in [4] it was 7.23; in test [9], 5.68; in [10], 6.51. Besides, the pIC50 was below 4.70 against Cytochrome P450 1A2; below 4.70 on Cytochrome P450 2C9; 5.37 on Cytochrome P450 2C19; below 4.70 against Cytochrome P450 2D6; 5.85 against Cytochrome P450 3A4. The IC50 against Heat shock protein HSP90 was found to be 830 nM. Moreover, the GI50 came out at 13400 nM in the test on NCI-H1299 [5], 10200 nM in the test on DU-145 [6] and 5500 nM in the test on NCI-H1299 [15]. In addition, the Activity in the test with NCI-H1299 [7] is 32%; in the test with NCI-H1299 [8], 50%; with NCI-H1299 [11] it was 24.8%; in the test with DU-145 [12] it was 60%; with NCI-H1299 [14], 70%; in the test on NCI-H1299 [16] it was 30 - 34%. In the test with NCI-H1299 [13], this molecule returned an inhibition at 20 µM of 100%.

Source of the values: ChEMBL document CHEMBL4402524, “Identification of Novel Resorcinol Amide Derivatives as Potent and Specific Pyruvate Dehydrogenase Kinase (PDHK) Inhibitors” (J Med Chem, 2019).
